Test systems include UO-31 renal; TK-10 renal; SNB-75 CNS; SK-MEL-5 melanoma; NCI-H23 lung; UACC-257 melanoma; HCT-116 colon; CAKI-1 renal; T-47D breast; LOX IMVI melanoma.
Experiment in all cases: inhibition of tumour cell growth, NCI panel, 48 h

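Cells were grown in 96-well plates and exposed to each compound for 48 hours at five concentrations; endpoints were interpolated linearly between bracketing concentrations, or set to the highest concentration if not reached. At the GI50, growth is halved. Definition used: TGI = concentration required for complete inhibition of growth.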 A value given as a limit tells only on which side of the number the result lay.

In the case of `Oc1[nH]c2ccc(Cl)cc2c1/C=c1/ccc2c(c1)N=C(c1ccc(C(F)(F)F)cc1)N=2`, the GI50 is 2.56 µM in the assay with UO-31 renal; 3.62 µM with TK-10 renal; 2.03 µM in the assay with SNB-75 CNS; 1.7 µM in the assay with SK-MEL-5 melanoma; 3.08 µM in the assay on NCI-H23 lung; 2.08 µM in the assay on UACC-257 melanoma. For the same molecule, the GI50 in the assay with HCT-116 colon was 1.98 µM; in the assay on CAKI-1 renal it was 2.74 µM; in the assay with T-47D breast, 2.86 µM; with LOX IMVI melanoma it was 1.77 µM. Moreover, the TGI with UO-31 renal is 9.81 µM; with TK-10 renal, 9.75 µM; with SNB-75 CNS it was 7.51 µM; in the assay on SK-MEL-5 melanoma it was 3.31 µM; in the assay with NCI-H23 lung, 13.6 µM; in the assay on UACC-257 melanoma it was 4.93 µM. Further, the TGI in the assay on HCT-116 colon came out at 5.02 µM; in the assay with CAKI-1 renal, 9.55 µM; in the assay on T-47D breast it was 9.23 µM; in the assay on LOX IMVI melanoma, 3.42 µM.

With `O=[N+]([O-])c1ccc(Oc2cccc(C(F)(F)F)c2)c([N+](=O)[O-])c1`, the GI50 in the assay with UO-31 renal is 3.15 µM; with TK-10 renal, 3.54 µM; in the assay on SNB-75 CNS, 5.11 µM; with SK-MEL-5 melanoma, 2.53 µM; in the assay on NCI-H23 lung it was 2.15 µM; in the assay on UACC-257 melanoma it was 5.46 µM. Also, the GI50 in the assay with HCT-116 colon is 1.24 µM; in the assay with CAKI-1 renal it was 3.08 µM; with T-47D breast, 2.55 µM; with LOX IMVI melanoma, 0.447 µM. Also, the TGI stood at 13.8 µM with UO-31 renal; 9.33 µM with TK-10 renal; 37.9 µM in the assay on SNB-75 CNS; 7.72 µM in the assay with SK-MEL-5 melanoma; 12 µM in the assay on NCI-H23 lung; 18.7 µM in the assay with UACC-257 melanoma. Besides, the TGI in the assay with HCT-116 colon turned out to be 12.7 µM; in the assay on CAKI-1 renal, 21.5 µM; in the assay with T-47D breast, 7.66 µM; in the assay with LOX IMVI melanoma, 10.8 µM.

Turning to `O=C1c2ccccc2-c2c1c1c(O)cccc1n2CCCc1ccccc1`, the GI50 in the assay on UO-31 renal was 7.66 µM; in the assay on TK-10 renal, 10.1 µM; in the assay on SNB-75 CNS it was 51.7 µM; with SK-MEL-5 melanoma it was 12.6 µM; in the assay on NCI-H23 lung, 18.6 µM; in the assay with UACC-257 melanoma it was 19.7 µM. Besides, the GI50 in the assay on HCT-116 colon was 5.91 µM; in the assay on CAKI-1 renal it was 24.9 µM; in the assay with T-47D breast, 13 µM; in the assay on LOX IMVI melanoma, 43.9 µM. Also, the TGI was above 100 µM in the assay with UO-31 renal; 56.7 µM in the assay with TK-10 renal; above 100 µM with SNB-75 CNS; 27.8 µM with SK-MEL-5 melanoma; above 100 µM with NCI-H23 lung; 50.8 µM in the assay on UACC-257 melanoma. Moreover, the TGI with HCT-116 colon, in the assay with CAKI-1 renal, with T-47D breast and in the assay on LOX IMVI melanoma was above 100 µM each time.

Source of the values: PubChem BioAssay (NCI).
